Experimental data published in PMC4721142, “Randomized controlled studies on the efficacy of antiarthritic agents in inhibiting cartilage degeneration and pain associated with progression of osteoarthritis in the rat” (Arthritis Research & Therapy, 2016).
Where “and” joins values, the source holds several entries; their conditions need not be identical. Equal entries are not always repeated. Marks after values point to notes of the source that are not given here.

Tests used:
Assay type in all cases: in vivo
MIA rat model of OA [1] = assay: MIA trial 2 digital Randall-Selitto test (daily tacrolimus 0.3 or 0.6 mg/kg i.p., curcumin 50 mg/kg p.o., fluocinolone 0.01 mg/kg s.c.; weekly clonidine 0.1 mg/kg s.c.)
Protocol: The digital Randall-Selitto (dRS) test is said to be a reliable and repeatable measure of neuropathic, bone, and inflammatory pain behavior in several different models, including those of arthritic or joint pain [29, 31, 32]. Baseline and posttreatment values were evaluated using a dRS test device (IITC Life Science, Woodland Hills, CA, USA). Animals were allowed to acclimate to the testing room before all experimentation and for a minimum of 30 minutes before testing. To ensure that their hind limbs were accessible, the animals were gently suspended in a restraint sling. The joint compression threshold was measured once at each time point for the ipsilateral and contralateral knee joints. Pressure was applied gradually over approximately 10 seconds to the medial and lateral aspects of the knee joint. Measurements were taken from the first observed behavior of vocalization, struggle, or withdrawal. A cutoff value of 600 g was used to prevent injury to the animal.
Following isoflurane anesthesia, 50 μl (2 mg) of MIA was injected into the synovial space of the left knee. Animals were randomly assigned to groups, and pain behavior was assessed 7, 14, 21, and 28 days following MIA injection and intervention using WB with the Stoelting incapacitance meter (trial 1) or the dRS test (trials 2 and 3). […] Animals received MIA treatment and then saline control or therapeutic. […] Histopathology was performed at each time point and at study termination. All studies were conducted in accordance with the International Association for the Study of Pain Guidelines and were approved by the Algos Therapeutics, Inc. Institutional Animal Care and Use Committee (IACUC) before initiation. Those running the studies were blind to the treatments. See Additional file 1 for further details.

MMT/MCLT rat model of OA = assay: MMT/MCLT trial 2 histopathology (same doses); set-up: key to Tibial cartilage degeneration score, 3-zone total: sum of three tibial zone scores (each on 5-point scale); key to Total joint score w/o femur / Total joint score: sum: cartilage degeneration scores + mean osteophyte score; conditions: for Bone score / Depth ratio any matrix change, mean / Depth ratio any matrix change, zone 2 / Femoral cartilage degeneration score / Tibial cartilage degeneration score, 3-zone total / Tibial cartilage degeneration score, zone 1 / Tibial cartilage degeneration score, zone 2 / Tibial cartilage degeneration score, zone 3 / Tibial cartilage degeneration width, substantial (>50% thickness) / Tibial cartilage degeneration width, total / Tibial osteophyte measure / Tibial osteophyte score / Total joint score / Total joint score w/o femur: mean; for % decrease, bone score / % decrease, depth ratio mean / % decrease, femoral cartilage degeneration score / % decrease, osteophyte measure / % decrease, osteophyte score / % decrease, substantial degeneration width / % decrease, tibial score 3-zone total / % decrease, tibial score zone 1 / % decrease, tibial score zone 3 / % decrease, total degeneration width / % decrease, total joint score / % decrease, total joint score w/o femur / % decrease, depth ratio zone 2 / % decrease, tibial score zone 2: vs saline group
Source text: For MMT/MCLT rat knee joints, sections were cut in 200-μm steps; stained with toluidine blue (also with a right and left half per section); and similarly analyzed for cartilage degeneration, proteoglycan loss, collagen damage, and osteophyte formation. Results were averaged across the three sections for an overall semiquantitative score. Regional differences across the tibial plateau were taken into consideration by dividing each section into three zones delineated using an ocular micrometer (outside, middle, and inside). Scores were based on the percentage of area affected within the zone.
Cartilage degeneration in the tibia was scored on a 5-point scale as detailed in the Methods section of Additional file 1. The total extent of degeneration of the tibial plateau was measured (in micrometers) and included an analysis of cell loss, proteoglycan loss, and collagen damage. Significant cartilage degeneration reflecting any degeneration extending through more than 50 % of the cartilage thickness was also measured. Collagen damage across the medial tibial plateau (the most severely affected section of the two halves) was also quantified.
Osteophytes and femoral cartilage degeneration were analyzed as detailed in Additional file 1. Scoring of the osteophytes and categorization into small, medium, and large was performed using an ocular micrometer. The actual osteophyte measurement (tidemark to farthest distance point extending toward the synovium) was also recorded. The femoral cartilage degeneration score and the three-zone sum of the tibial cartilage degeneration scores (mean of three levels) were summed to create a total cartilage degeneration score. The mean osteophyte score for each joint was added to this value to create a total joint score. […]
Histopathology MMT/MCLT Model

MIA rat model of OA [2] = assay: MIA trial 3 histopathology (same doses as dRS test); set-up: key to Cartilage matrix damage score: 5-point cartilage matrix score; key to Mean of all cartilage loss: approximate % loss, mean of four articular surfaces; Subchondral bone sclerosis: scale not given here; conditions: group mean; i.a. weekly
Source text: For MIA trial 3, joints were fixed and toluidine blue–stained sections of the rat knees were comprehensively analyzed from test and control subjects as detailed in Additional file 1. Briefly, a 5-point cartilage matrix score was derived based upon (1) approximate percentage of total loss of articular chondrocytes for each of four articular surfaces, (2) estimated proteoglycan loss (via Safranin O staining), and (3) loss of interstitial matrix. Chondrocyte necrosis and proteolytic degeneration of the femurs were scored on a 5-point scale as in trial 1. A femoral cartilage degeneration score and a three-zone sum of the tibial cartilage degeneration scores (mean of three levels) were also summed to create a total cartilage degeneration score. The mean osteophyte score for each joint was added to this value to create a total joint score with matrix. Other parameters assessed included synovial membrane inflammation and proliferation. Representative images from each group were also collected (see, e.g., Fig. 4 and Additional file 1: Fig. S55, Trial 3). […]
Hawes, APS, Pathologist). Treatments were masked during the assessment. Chondrocyte necrosis and proteolytic degeneration of the femurs were scored on a 5 point scale with 0 = None; 1 = <10%; […]
For the histopathology of the MIA model in Trial 3, completed by Bolder BioPATH (and Dr.
Bendele), a tolouidine blue stained slide containing both halves of the joint was comprehensively analyzed from test and control subjects. Approximate % of total loss of articular chondrocytes, loss of proteoglycan and loss of collagenous matrix were determined for each articular surface (medial tibial plateau (MTP), lateral tibial plateau (LTP), medial femoral condyle (MFC), and lateral femoral condyle (LFC). Chondrocyte loss was quantified by estimating the area of cartilage in which there were no apparently viable chondrocytes and proteoglycan loss was quantified by estimating differences in intensity of toluidine blue matrix staining. Loss of interstitial matrix was an indication of disruption and diminished type II collagen. Based on the mean % loss for the four surfaces in these parameters, a five point matrix score was utilized with the subchondral bone resorption, subchondral bone sclerosis and osteophyte scores to achieve a total joint score. […]
[…] steps, stained with toluidine blue (with a right and left halve per section), and analyzed for cartilage degeneration, proteoglycan loss, collagen damage, and osteophyte formation. Results were averaged across the 3 sections for an overall semi-quantitative score. Regional differences across the tibial plateau were taken into consideration by dividing each section into 3 zones delineated using an ocular micrometer (outside, middle, and inside). Scores were based on the percentage of area affected within the zone.
Cartilage degeneration in the tibia was scored on a five point scale for each zone, collagen damage across the medial tibial plateau was measured by total width for each grade damage. Cartilage degeneration in the tibia was scored none to severe (numerical values 0-5) for each zone (area defined by micrometer) using the following criteria: […]

[3] = tacrolimus 30 ng i.a., clonidine 100 μg/kg s.c.
[4] = i.a., tacrolimus 15 ng, curcumin 30 μg

## C=CC[C@@H]1/C=C(\C)C[C@H](C)C[C@H](OC)[C@H]2O[C@@](O)(C(=O)C(=O)N3CCCC[C@H]3C(=O)O[C@H](/C(C)=C/[C@@H]3CC[C@@H](O)[C@H](OC)C3)[C@H](C)[C@@H](O)CC1=O)[C@H](C)C[C@@H]2OC [Tacrolimus]
MIA rat model of OA [1]; day 21, tacrolimus 0.3 mg/kg, other drugs single dose
  dRS, hours after dosing with significant difference: Pretrt^d
MIA rat model of OA [1]; day 21, tacrolimus 0.6 mg/kg i.p.
  dRS, hours after dosing with significant difference: 1 h
MMT/MCLT rat model of OA; i.a., tacrolimus 15 ng
  Bone score: 2.60
  Depth ratio any matrix change, mean: 0.25
  Depth ratio any matrix change, zone 2: 0.06
  Femoral cartilage degeneration score: 0.87 and 0.87 ± 0.36
  Tibial cartilage degeneration score, 3-zone total: 4.43
  Tibial cartilage degeneration score, zone 1: 3.37
  Tibial cartilage degeneration score, zone 2: 1.07
  Tibial cartilage degeneration score, zone 3: 0.00
  Tibial cartilage degeneration width, substantial (>50% thickness): 536.67 µm
  Tibial cartilage degeneration width, total: 1060.00 µm
  Tibial osteophyte measure: 446.67 µm
  Tibial osteophyte score: 3.30
  Total joint score: 8.60 and 8.60 ± 0.63
  Total joint score w/o femur: 7.73
  % decrease, bone score: 19%
  % decrease, depth ratio mean: 23%
  % decrease, femoral cartilage degeneration score: 19%
  % decrease, osteophyte measure: 5%
  % decrease, osteophyte score: 7%
  % decrease, substantial degeneration width: 17%
  % decrease, tibial score 3-zone total: 21%
  % decrease, tibial score zone 1: 10%
  % decrease, tibial score zone 3: 100%
  % decrease, total degeneration width: 12%
  % decrease, total joint score: 16%
  % decrease, total joint score w/o femur: 16%
MMT/MCLT rat model of OA; [3]
  Bone score: 2.60
  Depth ratio any matrix change, mean: 0.28
  Depth ratio any matrix change, zone 2: 0.08
  Femoral cartilage degeneration score: 0.80 and 0.8 ± 0.19
  Tibial cartilage degeneration score, 3-zone total: 4.73
  Tibial cartilage degeneration score, zone 1: 3.50
  Tibial cartilage degeneration score, zone 2: 1.20
  Tibial cartilage degeneration score, zone 3: 0.03
  Tibial cartilage degeneration width, substantial (>50% thickness): 576.67 µm
  Tibial cartilage degeneration width, total: 1090.00 µm
  Tibial osteophyte measure: 457.33 µm
  Tibial osteophyte score: 3.37
  Total joint score: 8.90 and 8.90 ± 0.66
  Total joint score w/o femur: 8.10
MMT/MCLT rat model of OA; tacrolimus 15 ng i.a.
  % decrease, width of severe collagen degeneration: 86%
MMT/MCLT rat model of OA; tacrolimus 30 ng i.a.
  % decrease, width of severe collagen degeneration: 87%
  % decrease, bone score: 19%
  % decrease, depth ratio mean: 15%
  % decrease, depth ratio zone 2: 50%
  % decrease, femoral cartilage degeneration score: 25%
  % decrease, osteophyte measure: 3%
  % decrease, osteophyte score: 6%
  % decrease, substantial degeneration width: 11%
  % decrease, tibial score 3-zone total: 15%
  % decrease, tibial score zone 1: 6%
  % decrease, tibial score zone 2: 35%
  % decrease, tibial score zone 3: 0%
  % decrease, total degeneration width: 10%
  % decrease, total joint score: 13%
  % decrease, total joint score w/o femur: 12%
MMT/MCLT rat model of OA; [4]
  % decrease, depth ratio zone 2: 59%
  % decrease, tibial score zone 2: 42%
MIA rat model of OA [2]
  Bone resorption percent, LFC: 100%
  Bone resorption percent, LTP: 100%
  Bone resorption percent, MFC: 100%
  Bone resorption percent, MTP: 100%
  Bone resorption percent, mean: 100%
  Bone resorption score: 5.0
  Cartilage matrix damage score: 5.0 and 5.0 ± 0.0
  Mean of all cartilage loss: 92.5
  Osteophyte measure: 666.7 µm
  Osteophyte score: 3.3
  Subchondral bone sclerosis: 0.0
  Total joint score w/o matrix: 8.3
  Total joint score with matrix: 13.3 and 13.3 ± 1.7

## CC1(C)O[C@@H]2C[C@H]3[C@@H]4C[C@H](F)C5=CC(=O)C=C[C@]5(C)[C@@]4(F)[C@@H](O)C[C@]3(C)[C@]2(C(=O)CO)O1 [Fluocinolone, Fluocinolone Acetonide]
MIA rat model of OA [1]; day 14, tacrolimus 0.3 mg/kg, other drugs single dose
  dRS, hours after dosing with significant difference: 5^e h
MMT/MCLT rat model of OA; i.a., tacrolimus 15 ng
  Femoral cartilage degeneration score: 0.8 ± 0.25
  Total joint score: 9.80 ± 0.51
MIA rat model of OA [2]
  Bone resorption percent, LFC: 67%
  Bone resorption percent, LTP: 67%
  Bone resorption percent, MFC: 72%
  Bone resorption percent, MTP: 67%
  Bone resorption percent, mean: 68%
  Bone resorption score: 3.7
  Cartilage matrix damage score: 3.3 and 3.3 ± 1.2
  Mean of all cartilage loss: 53.7
  Osteophyte measure: 706.7 µm
  Osteophyte score: 3.3
  Subchondral bone sclerosis: 0.0
  Total joint score w/o matrix: 7.0
  Total joint score with matrix: 10.3 and 10.3 ± 2.7
